In article PMC9386018, “A lymphatic-absorbed multi-targeted kinase inhibitor for myelofibrosis therapy” (Nature Communications, 2022):
Values joined by “and” are separate entries in the source; they are usually repeats but may differ in a detail not shown here. Identical values can stand only once.

Tests used:
[1] = biological target: T1, Target kinase isoforms (PI3K, mTOR, RAF, MEK) (Homo sapiens, UniProt O00329); experiment: Target kinase isoforms 10-point IC50 determination (Supplementary Fig. 7); type: biochemical; conditions: PI3K delta
T1 sequence (O00329 1-1044): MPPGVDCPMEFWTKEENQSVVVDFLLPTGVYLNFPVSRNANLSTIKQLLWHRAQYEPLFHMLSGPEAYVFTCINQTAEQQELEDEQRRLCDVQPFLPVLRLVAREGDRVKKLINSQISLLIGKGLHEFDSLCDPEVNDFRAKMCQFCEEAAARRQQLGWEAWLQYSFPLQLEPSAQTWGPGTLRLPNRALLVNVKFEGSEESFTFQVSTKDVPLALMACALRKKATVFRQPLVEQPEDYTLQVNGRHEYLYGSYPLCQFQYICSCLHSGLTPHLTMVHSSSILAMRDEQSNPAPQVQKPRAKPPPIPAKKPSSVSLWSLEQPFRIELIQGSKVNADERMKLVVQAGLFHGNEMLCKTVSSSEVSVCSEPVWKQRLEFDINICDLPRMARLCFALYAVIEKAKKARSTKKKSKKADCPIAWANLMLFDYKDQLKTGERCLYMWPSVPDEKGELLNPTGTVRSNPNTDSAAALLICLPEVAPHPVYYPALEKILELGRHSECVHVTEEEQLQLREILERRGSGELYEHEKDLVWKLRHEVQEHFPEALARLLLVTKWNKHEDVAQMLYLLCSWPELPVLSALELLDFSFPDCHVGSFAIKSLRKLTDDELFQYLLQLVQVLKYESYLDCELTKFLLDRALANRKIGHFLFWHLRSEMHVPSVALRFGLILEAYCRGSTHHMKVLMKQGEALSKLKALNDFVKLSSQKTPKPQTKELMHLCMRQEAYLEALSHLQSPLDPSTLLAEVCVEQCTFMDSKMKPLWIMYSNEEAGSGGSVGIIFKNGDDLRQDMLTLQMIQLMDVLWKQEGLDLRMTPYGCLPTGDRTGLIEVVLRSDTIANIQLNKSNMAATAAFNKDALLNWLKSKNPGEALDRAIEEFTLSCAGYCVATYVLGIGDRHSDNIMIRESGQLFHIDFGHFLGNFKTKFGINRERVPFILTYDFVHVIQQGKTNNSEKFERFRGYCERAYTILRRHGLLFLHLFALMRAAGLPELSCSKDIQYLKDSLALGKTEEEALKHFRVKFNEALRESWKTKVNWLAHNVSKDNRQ
In short: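 Kinase activity across a 10-point dose series was corrected and normalized to vehicle-treated controls. IC50 values were derived by non-linear regression of percent activity. Kinome-wide percent inhibition was averaged over replicates.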

PI3Kγ = PI3Kγ (Homo sapiens, UniProt P48736); experiment: Target kinase 10-point inhibition assay, PI3Kγ; type: biochemical; conditions: PI3K gamma, replicates
Method: (§1) Quantitation of kinase inhibition was carried out by Life Technologies (Madison, WI) using the SelectScreen profiling platforms Z’-LYTE^TM and Adapta^TM. Single-point broad panel kinome screening was performed at 2.5 µM LP-182 against all kinases within the Z’-LYTE^TM and Adapta^TM assays (321 kinase isoforms, holoenzymes, or mutant variants). The average percent kinase inhibition from replicate data was ranked low to high, converted to a compatible identifier format, then input into Coral Human Kinome Visualization software for presentation analysis. […] Scaling of evolutionary distance for PI kinases is only relative and is based on literature analysis[62],[63]. Average percent kinome inhibition values from replicate data are supplied in Source Data file. […]. Corrected data was normalized to vehicle treated control values, and dose response percent kinase activity was analyzed by non-linear regression for determination of IC50 values.

mTOR = mTOR (Homo sapiens, UniProt P42345); experiment: Target kinase 10-point inhibition assay, mTOR; type: biochemical; conditions: replicates
Method: as §1

SET-2 cells = experiment: SET-2 proliferation assay (CellTiter-Fluor); type: cell-based, human; conditions: 72 h, replicates (Fig. 2d)
Method: Viable cells were counted by CellTiter-Fluor Assay (Promega) according to manufacturer’s protocol, and all fluorescence values were corrected by a no-cell control. […] Caspase activity was measured by Caspase-Glo 3/7 assay (Promega) according to the manufacturer’s protocol, and all luminescence values were corrected by a no-cell control. Dose response proliferation and Caspase activation data was normalized to vehicle treated control cells and analyzed by non-linear regression for determination of IC50 values. Data was generated from n = 3 independent experiments performed in replicate.

Chain of mTOR (P42345 1360-2549 limits assumed): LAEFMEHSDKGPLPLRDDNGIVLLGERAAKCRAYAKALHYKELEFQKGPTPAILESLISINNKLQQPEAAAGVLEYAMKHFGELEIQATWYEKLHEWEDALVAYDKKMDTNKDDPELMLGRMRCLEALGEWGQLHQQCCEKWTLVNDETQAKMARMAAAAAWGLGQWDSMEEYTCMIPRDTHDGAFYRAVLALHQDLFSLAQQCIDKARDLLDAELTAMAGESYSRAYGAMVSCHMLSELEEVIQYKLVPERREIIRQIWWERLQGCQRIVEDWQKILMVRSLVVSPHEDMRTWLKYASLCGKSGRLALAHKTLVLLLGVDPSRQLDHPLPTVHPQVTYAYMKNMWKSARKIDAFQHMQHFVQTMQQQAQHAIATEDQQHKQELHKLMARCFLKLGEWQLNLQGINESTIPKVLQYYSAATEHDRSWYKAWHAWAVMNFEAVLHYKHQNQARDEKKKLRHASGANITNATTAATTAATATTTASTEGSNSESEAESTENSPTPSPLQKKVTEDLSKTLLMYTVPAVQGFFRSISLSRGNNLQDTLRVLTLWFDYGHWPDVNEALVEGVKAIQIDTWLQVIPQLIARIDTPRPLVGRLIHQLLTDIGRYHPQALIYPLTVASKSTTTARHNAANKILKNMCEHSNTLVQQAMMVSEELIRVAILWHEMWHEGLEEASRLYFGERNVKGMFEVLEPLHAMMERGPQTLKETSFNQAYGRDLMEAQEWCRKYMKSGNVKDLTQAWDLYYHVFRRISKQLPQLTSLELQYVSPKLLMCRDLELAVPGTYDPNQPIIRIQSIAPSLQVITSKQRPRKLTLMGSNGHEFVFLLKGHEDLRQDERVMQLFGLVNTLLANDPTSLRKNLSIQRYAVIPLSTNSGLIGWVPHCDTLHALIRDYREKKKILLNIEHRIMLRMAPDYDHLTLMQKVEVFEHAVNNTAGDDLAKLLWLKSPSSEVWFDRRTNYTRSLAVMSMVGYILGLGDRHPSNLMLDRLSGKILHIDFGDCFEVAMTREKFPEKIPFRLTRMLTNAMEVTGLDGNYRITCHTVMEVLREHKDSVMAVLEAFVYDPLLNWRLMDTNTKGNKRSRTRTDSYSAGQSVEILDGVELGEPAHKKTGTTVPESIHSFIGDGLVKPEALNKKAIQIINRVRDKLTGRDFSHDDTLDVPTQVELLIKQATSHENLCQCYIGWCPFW
Chain of PI3Kγ (P48736 whole entry, canonical isoform): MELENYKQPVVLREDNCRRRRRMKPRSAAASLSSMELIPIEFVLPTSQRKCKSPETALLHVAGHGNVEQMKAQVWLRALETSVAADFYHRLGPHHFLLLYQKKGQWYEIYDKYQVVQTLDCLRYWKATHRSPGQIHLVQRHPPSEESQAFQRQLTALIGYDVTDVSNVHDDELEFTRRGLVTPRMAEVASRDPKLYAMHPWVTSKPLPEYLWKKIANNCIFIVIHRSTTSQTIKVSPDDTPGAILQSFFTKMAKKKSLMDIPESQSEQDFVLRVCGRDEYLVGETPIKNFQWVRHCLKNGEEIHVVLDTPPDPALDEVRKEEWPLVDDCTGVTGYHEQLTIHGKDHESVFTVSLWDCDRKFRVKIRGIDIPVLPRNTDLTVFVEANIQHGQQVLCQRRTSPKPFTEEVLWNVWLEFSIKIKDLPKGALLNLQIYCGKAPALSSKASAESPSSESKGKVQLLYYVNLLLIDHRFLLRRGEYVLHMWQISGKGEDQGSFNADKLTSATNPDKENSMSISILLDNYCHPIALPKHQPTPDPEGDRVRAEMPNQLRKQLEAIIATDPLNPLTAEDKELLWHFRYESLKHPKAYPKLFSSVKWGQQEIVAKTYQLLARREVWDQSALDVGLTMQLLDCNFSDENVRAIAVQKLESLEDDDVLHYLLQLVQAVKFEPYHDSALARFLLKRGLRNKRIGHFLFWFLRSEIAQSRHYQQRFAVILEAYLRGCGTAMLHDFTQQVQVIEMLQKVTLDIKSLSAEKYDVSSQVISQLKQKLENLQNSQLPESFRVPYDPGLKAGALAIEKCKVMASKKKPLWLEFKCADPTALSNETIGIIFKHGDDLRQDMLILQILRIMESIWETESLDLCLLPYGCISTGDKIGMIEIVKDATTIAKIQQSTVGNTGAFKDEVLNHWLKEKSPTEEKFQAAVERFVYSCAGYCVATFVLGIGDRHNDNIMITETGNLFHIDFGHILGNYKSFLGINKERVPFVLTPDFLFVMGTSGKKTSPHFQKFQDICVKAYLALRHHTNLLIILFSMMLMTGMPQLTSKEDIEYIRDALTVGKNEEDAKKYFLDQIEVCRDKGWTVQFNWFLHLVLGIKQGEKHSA

- Kinase Activity (%) PI3K delta ([1]; concentration 0.0187 nM, 18.7 pM): 106% and 96% and 89% and 81%
- Kinase Activity (%) PI3K delta ([1]; concentration 41.2 nM, 0.0412 µM): 2% and 3%
- Kinase Activity (%) PI3K delta ([1]; concentration 123 nM, 0.123 µM): 1% and 3%
- Kinase Activity (%) PI3K delta ([1]; concentration 370 nM, […]): 2%
- activity at 1.11 µM ([1]; concentration 1110 nM): 0%
- Kinase Activity (%) PI3K delta ([1]; concentration 3330 nM, 3.33 µM): 2%
- Kinase Activity (%) PI3K delta ([1]; concentration 10000 nM, 10 µM): 9%
- activity at 18.7 pM (PI3Kγ; 0.0187 nM): 98%
- Kinase Activity (%) (PI3Kγ; 0.0187 nM, 18.7 pM): 118% and 115% and 109%
- Kinase Activity (%) (PI3Kγ; 0.0562 nM, 56.2 pM): 103% and 91% and 124%
- Kinase Activity (%) (PI3Kγ; 1110 nM, 1.11 µM): 0% (4×) and 8% and 1%
- Kinase Activity (%) (PI3Kγ; 3330 nM, 3.33 µM): 0% (5×) and 3%
- Kinase Activity (%) (PI3Kγ; 10000 nM, 10 µM): 3% and 0% (4×) and 8%
- activity at 6.09 pM (PI3Kγ; […]): 102%
- activity at 0.000495 µM (mTOR; 0.495 nM): 96%
- Kinase Activity (%) (mTOR; 0.495 nM, 0.000495 µM): 89% and 90% (2×) and 92%
- activity at 0.00152 µM (mTOR; 1.52 nM): 78%
- Kinase Activity (%) (mTOR; 1.52 nM, 0.00152 µM): 80% and 77% and 74% and 83% and 76%
- activity at 0.00457 µM (mTOR; 4.57 nM): 63%
- Kinase Activity (%) (mTOR; 4.57 nM, 0.00457 µM): 61% and 56% and 52% and 57% and 58%
- Kinase Activity (%) (mTOR; 123 nM, 0.123 µM): 7% (2×) and 3% and 2% and 5% and 0%
- Kinase Activity (%) (mTOR; 1110 nM, 1.11 µM): 5% and 3% and 2% and -4% and -2% and -1%
- Kinase Activity (%) (mTOR; 3330 nM, 3.33 µM): 3% and 2% and 1% and -3% and -2% and -4%
- Kinase Activity (%) (mTOR; 10000 nM, 10 µM): 6% and 3% and 0% and -1% and 1% and -2%
SMILES: O=S(=O)(Nc1cc(-c2ccc3ncc(N4CCNCC4)nc3c2)cnc1Cl)c1ccc(F)cc1 [LP-527, N-(2-chloro-5-(3-(piperazin-1-yl)quinoxalin-6-yl)pyridin-3-yl)-4-fluorobenzenesulfonamide]
- Kinase Activity (%) PI3K delta ([1]; concentration 0.0562 nM, 56.2 pM): 100% and 95% and 78% and 86% and 79% and 91%
- Kinase Activity (%) (PI3Kγ; 0.495 nM, 0.000495 µM): 94% (2×) and 75% and 83% and 72% and 100% and 97% and 99% and 96%
- Kinase Activity (%) (PI3Kγ; 1.52 nM, 0.00152 µM): 67% and 68% and 73% and 64% and 69% (2×) and 94% and 93% and 92% and 65%
- Kinase Activity (%) (PI3Kγ; 4.57 nM, 0.00457 µM): 52% and 53% and 49% and 45% and 47% and 76% and 79% and 62% and 70% and 55%
- Kinase Activity (%) (PI3Kγ; 41.2 nM, 0.0412 µM): 18% and 7% and 11% and 10% and 9% and 25% and 24% and 17% and 23% and 14%
- Kinase Activity (%) (PI3Kγ; 123 nM, 0.123 µM): 5% and 3% (2×) and 6% and 4% and 11% and 10% (2×) and 9% and 8%
- Kinase Activity (%) (mTOR; 41.2 nM, 0.0412 µM): 15% and 14% and 8% and 12% and 0% and 10%
- Growth (%) (SET-2 cells; 0.0390625 µM): 97.7197% and 103.197% and 95.0232% and 96.0199% and 87.1186% and 84.2432%
- Growth (%) (SET-2 cells; 0.078125 µM): 102.201% and 95.8185% and 100.256% and 94.6633% and 89.3668% and 84.7402%
- Growth (%) (SET-2 cells; 0.15625 µM): 60.7367% and 65.6255% and 73.87% and 70.9074% and 80.6697% and 85.462%
- Growth (%) (SET-2 cells; 0.3125 µM): 89.6622% and 88.0779% and 85.9694% and 85.0557% and 87.935% and 90.4791%
- Growth (%) (SET-2 cells; 0.625 µM): 81.0162% and 91.3823% and 77.1925% and 82.0932% and 77.6879% and 82.066%
- Growth (%) (SET-2 cells; 5 µM): 12.7992% and 7.412% and 15.3388% and 14.5913% and 45.9761% and 39.8941%
- Growth (%) (SET-2 cells; 10 µM): -3.542% and -5.534% and -4.236% and 0.443% and 15.3648% and 16.0393%
- Growth (%) (SET-2 cells; 20 µM): -8.838% and -10.5585% and -11.075% and -10.5212% and 6.443% and 9.661%
